From patent US6184396A, “Triazole derivative or salt thereof, preparation process thereof and pharmaceutical containing said compound as an effective ingredient” (SSP Co., Ltd., priority 1998, dated 2001)
In brackets after ≈: the same amount, converted by molar mass.

Tests used:
C. albicans IFM 40009 = test: Test 3: Action against Candida albicans (in vivo); design: species or system C. albicans; mice (ICR (CRJ: CD-1), male, 4-week-old); conditions: mice infected i.v. with C. albicans, 1.25 mg/kg oral, 1 hour after inoculation then once a day for 4 days from 24 hours; for Surviving mice on Day 14, number of surviving mice/total number in group: control 0/11; for Average Survival days: control 4.5 days, *** p < 0.001 relative to control
Experimental: Test 3: Action against Candida albicans (in vivo)
After 4-week-old, male, ICR (CRJ: CD-1) mice were fasted for 6 hours, C. albicans IFM 40009 was inoculated to the tail vein of each of the mice to give an amount of 3.0×10^6 cells/mouse, whereby infection was caused. A control group consisted of 11 mice, while a medicament-administered group consisted of 5 mice. The medicament dissolved in 20% polyethylene glycol was orally administered 1 hour after the inoculation of the fungus and from 24 hours after the inoculation, it was administered once a day for 4 straight days, each in an amount of 1.25 mg/kg. The survival condition on Day 14 after the infection was compared. In addition, the survival days of the control group and the medicament-administered group were detected by the Kaplan-Meier method (Cox mantel test). Incidentally, Fluconazole was employed as a medicament for comparison.

C. albicans ATCC 44859 = test: Test 1: Action against Candida albicans (in vitro); format: cell-based; conditions: ATCC44859, minimum concentration with apparent suppression of mycelial type growth vs medicament-free control, MEM medium + 10% fetal bovine serum, 37° C., 24 hours, CO2, read-out: Terminal point C. albicans
Experimental: Test 1: Action against Candida albicans (in vitro)
The resulting mixture was incubated at 37° C. for 24 hours in a CO2 gas incubator. After incubation, a morphological change of C. albicans was observed under an inverted microscope. The minimum medicament concentration permitting the apparent suppression of mycerial type growth compared with that of a medicament-free control was designated as a terminal point (ng/ml).

A. fumigatus IFM 40808 = test: Test 2: Action against Aspergillus fumigatus (in vitro); format: cell-based; conditions: IFM40808, 0.165M MOPS-containing RPMI 1640, pH 7, almar Blue, 35° C., 48 hours
Experimental: Test 2: Action against Aspergillus fumigatus (in vitro)
They were incubated at 35° C. for 48 hours.

Row | SMILES | Surviving mice on Day 14, number of surviving mice/total number in group (C. albicans IFM 40009) | Average Survival days (C. albicans IFM 40009) [days] | MIC (C. albicans ATCC 44859) [µg/mL] | MIC (A. fumigatus IFM 40808) [µg/mL]
1 | COC(Cn1cncn1)(c1ccc(F)cc1F)C(F)(F)S(=O)(=O)C1CC1 (stereo not drawn) [Example 15, 1-[3-(cyclopropylsulfonyl)-2-(2,4-difluorophenyl)-3,3-difluoro-2-methoxypropyl]-1H-1,2,4-triazole] | 4/5 | 13.4 | – | –
2 | COC(Cn1cncn1)(c1ccc(F)cc1F)C(F)(F)SC1CC1 (stereo not drawn) [Example 10, 1-[3-(cyclopropylthio)-2-(2,4-difluorophenyl)-3,3-difluoro-2-methoxypropyl]-1H-1,2,4-triazole] | – | – | 0.0313 | 32 (≈ 88.6 µM)
3 | O=S(=O)(C1CC1)C(F)(F)C(O)(Cn1cncn1)c1ccc(F)cc1F (single isomer, unassigned; (-)) [Example 17(2), (-)-1-(Cyclopropylsulfonyl)-2-(2,4-difluorophenyl)-1,1-difluoro-3-(1H-1,2,4-triazol-1-yl)-2-propanol] | – | – | 0.0156 | 2 (≈ 5.27 µM)
4 | OC(Cn1cncn1)(c1ccc(F)cc1F)C(F)(F)SC1CC1 (stereo not drawn) [Example 7, 1-(cyclopropylthio)-2-(2,4-difluorophenyl)-1,1-difluoro-3-(1H-1,2,4-triazol-1-yl)-2-propanol] | – | – | 0.0078 | 2 (≈ 5.76 µM)
5 | OC(Cn1cncn1)(Cn1cncn1)c1ccc(F)cc1F [Fluconazole, reference compound] | 1/5 | 11.0 | 0.25 | > 128
6 | O=S(=O)(C1CC1)C(F)(F)C(O)(Cn1cncn1)c1ccc(F)cc1F (racemic) [Example 12, 1-(cyclopropylsulfonyl)-2-(2,4-difluorophenyl)-1,1-difluoro-3-(1H-1,2,4-triazol-1-yl)-2-propanol] | 4/5 | 14.00 | 0.0313 | 8 (≈ 21.1 µM)
7 | OC(Cn1cncn1)(c1ccc(F)cc1)C(F)(F)SC1CC1 (stereo not drawn) [Example 8, 1-(cyclopropylthio)-1,1-difluoro-2-(4-fluorophenyl)-3-(1H-1,2,4-triazol-1-yl)-2-propanol] | – | – | 0.0156 | 8 (≈ 24.3 µM)
